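In this assay, cells in 96-well plates receive the compound at five concentrations for 48 hours. Endpoints are linearly interpolated between the surrounding concentrations. TGI denotes the concentration required for complete inhibition of growth.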
Key:
Assay in all cases: NCI tumour cell line growth inhibition, 48 h
CCRF-CEM leukemia = tested on: CCRF-CEM leukemia
A498 renal = tested on: A498 renal
IGROV1 ovarian = tested on: IGROV1 ovarian
RPMI-8226 leukemia = tested on: RPMI-8226 leukemia
COLO 205 colon = tested on: COLO 205 colon
UACC-257 melanoma = tested on: UACC-257 melanoma
SK-MEL-5 melanoma = tested on: SK-MEL-5 melanoma
OVCAR-5 ovarian = tested on: OVCAR-5 ovarian
HT29 colon = tested on: HT29 colon
HL-60(TB) leukemia = tested on: HL-60(TB) leukemia
MDA-N = tested on: MDA-N
OVCAR-8 ovarian = tested on: OVCAR-8 ovarian
SF-295 CNS = tested on: SF-295 CNS
SR leukemia = tested on: SR leukemia
KM12 colon = tested on: KM12 colon
SK-MEL-2 melanoma = tested on: SK-MEL-2 melanoma
HCC-2998 colon = tested on: HCC-2998 colon
T-47D breast = tested on: T-47D breast
PC-3 prostate = tested on: PC-3 prostate
OVCAR-3 ovarian = tested on: OVCAR-3 ovarian

Cc1cc(C)nc(NS(=O)(=O)c2ccc(Nc3c4ccccc4nc4c(C(=O)NCCCN(CCO)CCO)cccc34)cc2)n1
TGI (CCRF-CEM leukemia): 69.7 µM
TGI (A498 renal): > 100 µM
TGI (IGROV1 ovarian): > 100 µM
TGI (RPMI-8226 leukemia): 79.6 µM
TGI (COLO 205 colon): 34.3 µM
TGI (UACC-257 melanoma): > 100 µM
TGI (SK-MEL-5 melanoma): 34.8 µM
TGI (OVCAR-5 ovarian): > 100 µM
TGI (HT29 colon): > 100 µM
TGI (HL-60(TB) leukemia): 38.6 µM
TGI (MDA-N): 83.7 µM
TGI (OVCAR-8 ovarian): > 100 µM
TGI (SF-295 CNS): > 100 µM
TGI (SR leukemia): > 100 µM
TGI (KM12 colon): 30.7 µM
TGI (SK-MEL-2 melanoma): 34.8 µM
TGI (HCC-2998 colon): 33.6 µM
TGI (T-47D breast): > 100 µM
TGI (PC-3 prostate): > 100 µM
TGI (OVCAR-3 ovarian): > 100 µM

CC1(C23CC4CC(CC(C4)C2)C3)n2c(=O)n(-c3ccccc3)c(=O)n2C1(C)C12CC3CC(CC(C3)C1)C2 (centres undefined)
TGI (CCRF-CEM leukemia): > 100 µM
TGI (A498 renal): > 100 µM
TGI (IGROV1 ovarian): > 100 µM
TGI (RPMI-8226 leukemia): > 100 µM
TGI (COLO 205 colon): > 100 µM
TGI (UACC-257 melanoma): > 100 µM
TGI (SK-MEL-5 melanoma): > 100 µM
TGI (OVCAR-5 ovarian): > 100 µM
TGI (HT29 colon): > 100 µM
TGI (HL-60(TB) leukemia): > 100 µM
TGI (MDA-N): > 100 µM
TGI (OVCAR-8 ovarian): > 100 µM
TGI (SF-295 CNS): > 100 µM
TGI (SR leukemia): > 100 µM
TGI (KM12 colon): > 100 µM
TGI (SK-MEL-2 melanoma): > 100 µM
TGI (T-47D breast): > 100 µM
TGI (PC-3 prostate): > 100 µM
TGI (OVCAR-3 ovarian): > 100 µM

Cc1[nH]c(=O)nc(N/N=C/c2ccc(Cl)cc2)c1C(=O)NC(C)(CO)CO
TGI (CCRF-CEM leukemia): > 100 µM
TGI (A498 renal): > 100 µM
TGI (IGROV1 ovarian): > 100 µM
TGI (RPMI-8226 leukemia): > 100 µM
TGI (COLO 205 colon): > 100 µM
TGI (UACC-257 melanoma): > 100 µM
TGI (SK-MEL-5 melanoma): > 100 µM
TGI (OVCAR-5 ovarian): > 100 µM
TGI (HT29 colon): > 100 µM
TGI (HL-60(TB) leukemia): > 100 µM
TGI (MDA-N): > 100 µM
TGI (OVCAR-8 ovarian): > 100 µM
TGI (SF-295 CNS): > 100 µM
TGI (SR leukemia): > 100 µM
TGI (KM12 colon): > 100 µM
TGI (SK-MEL-2 melanoma): > 100 µM
TGI (HCC-2998 colon): > 100 µM
TGI (T-47D breast): > 100 µM
TGI (PC-3 prostate): > 100 µM
TGI (OVCAR-3 ovarian): > 100 µM

CCOC(=O)c1csc(NC(=O)CCN2CCCCC2)n1
TGI (CCRF-CEM leukemia): > 100 µM
TGI (A498 renal): > 100 µM
TGI (IGROV1 ovarian): > 100 µM
TGI (RPMI-8226 leukemia): > 100 µM
TGI (COLO 205 colon): > 100 µM
TGI (UACC-257 melanoma): > 100 µM
TGI (SK-MEL-5 melanoma): > 100 µM
TGI (OVCAR-5 ovarian): > 100 µM
TGI (HT29 colon): > 100 µM
TGI (HL-60(TB) leukemia): > 100 µM
TGI (MDA-N): > 100 µM
TGI (OVCAR-8 ovarian): > 100 µM
TGI (SF-295 CNS): > 100 µM
TGI (SR leukemia): > 100 µM
TGI (SK-MEL-2 melanoma): > 100 µM
TGI (HCC-2998 colon): > 100 µM
TGI (T-47D breast): > 100 µM
TGI (PC-3 prostate): > 100 µM
TGI (OVCAR-3 ovarian): > 100 µM

CCC1=CC2CN3CCc4c([nH]c5ccccc45)C(C(=O)OC)(C2)C13 (centres undefined)
TGI (CCRF-CEM leukemia): 252 µM
TGI (A498 renal): 108 µM
TGI (IGROV1 ovarian): 105 µM
TGI (RPMI-8226 leukemia): 137 µM
TGI (COLO 205 colon): 80.6 µM
TGI (UACC-257 melanoma): 104 µM
TGI (SK-MEL-5 melanoma): 79.4 µM
TGI (OVCAR-5 ovarian): 24.3 µM
TGI (HT29 colon): 60.4 µM
TGI (HL-60(TB) leukemia): 125 µM
TGI (OVCAR-8 ovarian): 14.7 µM
TGI (SF-295 CNS): 90.1 µM
TGI (KM12 colon): 41.8 µM
TGI (SK-MEL-2 melanoma): 114 µM
TGI (HCC-2998 colon): > 92.6 µM
TGI (OVCAR-3 ovarian): 107 µM

CON(C)C(C#N)=C(C#N)C#N
TGI (CCRF-CEM leukemia): > 10 µM
TGI (A498 renal): > 10 µM
TGI (IGROV1 ovarian): > 10 µM
TGI (RPMI-8226 leukemia): > 10 µM
TGI (COLO 205 colon): > 10 µM
TGI (SK-MEL-5 melanoma): > 10 µM
TGI (OVCAR-5 ovarian): > 10 µM
TGI (HT29 colon): > 10 µM
TGI (HL-60(TB) leukemia): > 10 µM
TGI (MDA-N): > 10 µM
TGI (OVCAR-8 ovarian): > 10 µM
TGI (SF-295 CNS): > 10 µM
TGI (SR leukemia): > 10 µM
TGI (KM12 colon): > 10 µM
TGI (SK-MEL-2 melanoma): > 10 µM
TGI (HCC-2998 colon): > 10 µM
TGI (T-47D breast): > 10 µM
TGI (PC-3 prostate): > 10 µM
TGI (OVCAR-3 ovarian): > 10 µM

CN1C2CC(=O)CC1[C@H](O)[C@@H]2O
TGI (CCRF-CEM leukemia): > 100 µM
TGI (RPMI-8226 leukemia): > 100 µM
TGI (COLO 205 colon): > 100 µM
TGI (UACC-257 melanoma): > 100 µM
TGI (HT29 colon): > 100 µM
TGI (HL-60(TB) leukemia): > 100 µM
TGI (MDA-N): > 100 µM
TGI (OVCAR-8 ovarian): > 100 µM
TGI (SF-295 CNS): > 100 µM
TGI (SR leukemia): > 100 µM
TGI (KM12 colon): > 100 µM
TGI (SK-MEL-2 melanoma): > 100 µM
TGI (HCC-2998 colon): > 100 µM
TGI (T-47D breast): > 100 µM
TGI (PC-3 prostate): > 100 µM
TGI (OVCAR-3 ovarian): > 100 µM

From PubChem BioAssay (NCI)
